The values that follow come from patent publication US20170304815A1, “Antimicrobial And Biological Active Polymer Composites And Related Methods, Materials and Devices” (IASIS MOLECULAR SCIENCES, priority 2014, published 2017).

The conditions of data set [1]: unbound molecule; cited from earlier work.
Data set [2] can be described thus: Thermogravimetric analysis, thermal stability. The data set is classed as physicochemical. Conditions: simple salt. As to the method:
Amberlite IRP69 strong cation-exchange material was stirred in a minimal amount of deionized water and an excess (˜10-500 molar excess) silver nitrate was added and the mixture stirred by the addition of a mechanical stirrer for 60 minutes. […] The modified IRP69 was dried under vacuum at 130° C. and the material was milled with an IKA homogenizer and the resulting particles were put through a sieve with a 35 μm cutoff. The powder was dried under vacuum and used for incorporation within various polymer composite mixtures.
Thermal stability of a benzalkonium salt of IRP69 (IRP69-benzalkonium) was measured and compared to thermal stability of benzalkonium chloride (simple salt). […] (close to the optimal processing temperature polyethylene terephthalate), unexpectedly providing for stable incorporation of the subject biologically active materials within composites useful to create fibers, threads, woven textiles and fabrics incorporating these thermally demanding materials.

Take `[H]/N=C(\N/C(=N/[H])NCCCCCCNC(=N)NC(=N)Nc1ccc(Cl)cc1)Nc1ccc(Cl)cc1` [Chlorhexidine]: the “susceptible to thermal degradation to p-chloroaniline above” value in data set [1] was “above 70 °C”.
As for benzalkonium chloride, the “begins to decompose at (thermogravimetric profile)” value in data set [2] was “about 200 °C”.
